In the supplement of paper PMC11061612:

Legend:
M059J (Glioblastoma) = experiment: Bliss excess, mean over the matrix (fraction); higher = more synergy
Method in brief: (§1)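 After 24 hours at 37°C and 5% CO2 in 1536-well plates, cells in DMEM/F12 or RPMI plus 10% FBS received two-drug dose matrices for 72 hours. Viability came from CellTiter-Glo 2.0 luminescence and was scaled as inhibition, anchored at 0 by vehicle wells and at 1 by blank wells. Combination Emax is taken as the second-highest inhibition in the matrix, and Bliss excess as the observed combination effect less EA + EB − EA·EB, with EA and EB the single-agent effects.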

[1] = tested on: PC-3 (Prostate Carcinoma); experiment: as above
Method in brief: as §1

[2] = tested on: OCI-AML3 (Acute Myeloid Leukemia); experiment: as above
Method in brief: as §1

[3] = tested on: OCI-AML3 (Acute Myeloid Leukemia); experiment: combination Emax (second highest fraction inhibited in the dose matrix, 72 h); higher = more inhibition; extreme values may be limits of the assay
Method in brief: as §1
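For Bliss excess, mean over the matrix in this document: after 72 h of two-drug dosing.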

Row | Compound | Bliss excess (M059J (Glioblastoma)) | Bliss excess [1] | Bliss excess [2] | combination Emax [3]
1 | CC1(C)CCC(CN2CCN(c3ccc(C(=O)NS(=O)(=O)c4ccc(NCC5CCOCC5)c([N+](=O)[O-])c4)c(Oc4cnc5[nH]ccc5c4)c3)CC2)=C(c2ccc(Cl)cc2)C1 [Venetoclax] + C=CCn1c(=O)c2cnc(Nc3ccc(N4CCN(C)CC4)cc3)nc2n1-c1cccc(C(C)(C)O)n1 [AZD1775] (first compound max 1 µM, partner max 1 µM) | -0.0663 | 0.0286 |  | 
2 | Cc1c2c(nn1C)CSCc1cc(n(C)n1)CSc1cc(c3ccccc3c1)OCCCc1c(C(=O)O)n(C)c3c-2c(Cl)ccc13 [AZD5991] + CCN(CCO)CCCOc1ccc2c(Nc3cc(CC(=O)Nc4cccc(F)c4)[nH]n3)ncnc2c1 [AZD2811] (first compound max 1 µM, 7x7, partner max 1 µM) | -0.0074 | -0.0328 |  | 
3 | COc1cccc(OCCCN)c1-c1cc(Nc2cnc(C#N)cn2)n[nH]1 [Prexasertib] + Cc1cc2ncnn2cc1Nc1ncc2c(n1)n(C1CCOCC1)c(=O)n2C [AZD7648] (first compound max 1 µM, 7x7, partner max 10 µM) | -0.0178 | -0.036 |  | 
4 | CS(=O)(=O)CCNCc1ccc(-c2ccc3ncnc(Nc4ccc(OCc5cccc(F)c5)c(Cl)c4)c3c2)o1 [Lapatinib] + NC1(c2ccc(-c3nc4ccn5c(=O)[nH]nc5c4cc3-c3ccccc3)cc2)CCC1 [MK-2206] (first compound max 10 µM, 7x7, partner max 10 µM) | -0.0047 |  | 0.0739 | 0.683
5 | Cc1c2c(nn1C)CSCc1cc(n(C)n1)CSc1cc(c3ccccc3c1)OCCCc1c(C(=O)O)n(C)c3c-2c(Cl)ccc13 [AZD5991] + C[C@@H]1COCCN1C2=NC(=NC(=C2)C3(CC3)[S@](=N)(=O)C)C4=C5C=CNC5=NC=C4 [AZD6738] (first compound max 1 µM, 7x7, partner max 10 µM) | -0.0165 | 0.035 |  | 
6 | COc1cc2c(cc1OCCCCCOc1cc3c(cc1OC)C(=O)N1C=C(C)C[C@H]1C=N3)N=C[C@@H]1CC(C)=CN1C2=O [SG3199] + O=C(c1cc(Cc2n[nH]c(=O)c3ccccc23)ccc1F)N1CCN(C(=O)C2CC2)CC1 [Olaparib] (first compound max 0.001 µM, 7x7, partner max 10 µM) | -0.037 | -0.0417 |  | 
7 | CC1(C)CCC(CN2CCN(c3ccc(C(=O)NS(=O)(=O)c4ccc(NCC5CCOCC5)c([N+](=O)[O-])c4)c(Oc4cnc5[nH]ccc5c4)c3)CC2)=C(c2ccc(Cl)cc2)C1 [Venetoclax] + Cc1cc2ncnn2cc1Nc1ncc2c(n1)n(C1CCOCC1)c(=O)n2C [AZD7648] (first compound max 1 µM, 7x7, partner max 10 µM) | -0.0144 | -0.0245 |  | 
8 | Cc1c2c(nn1C)CSCc1cc(n(C)n1)CSc1cc(c3ccccc3c1)OCCCc1c(C(=O)O)n(C)c3c-2c(Cl)ccc13 [AZD5991] + C=CCn1c(=O)c2cnc(Nc3ccc(N4CCN(C)CC4)cc3)nc2n1-c1cccc(C(C)(C)O)n1 [AZD1775] (first compound max 1 µM, partner max 1 µM) | -0.0191 | 0.0111 |  | 
9 | CC1(C)CCC(CN2CCN(c3ccc(C(=O)NS(=O)(=O)c4ccc(NCC5CCOCC5)c([N+](=O)[O-])c4)c(Oc4cnc5[nH]ccc5c4)c3)CC2)=C(c2ccc(Cl)cc2)C1 [Venetoclax] + C1CN(CCC1(C(=O)N[C@@H](CCO)C2=CC=C(C=C2)Cl)N)C3=NC=NC4=C3C=CN4 [Capivasertib] (first compound max 1 µM, 7x7, partner max 3 µM) | 0.0099 | -0.046 |  | 
10 | Cc1cc2ncnn2cc1Nc1ncc2c(n1)n(C1CCOCC1)c(=O)n2C [AZD7648] + C=CCn1c(=O)c2cnc(Nc3ccc(N4CCN(C)CC4)cc3)nc2n1-c1cccc(C(C)(C)O)n1 [AZD1775] (first compound max 10 µM, partner max 1 µM) | -0.0821 | -0.0415 |  | 
11 | CC1(C)CCC(CN2CCN(c3ccc(C(=O)NS(=O)(=O)c4ccc(NCC5CCOCC5)c([N+](=O)[O-])c4)c(Oc4cnc5[nH]ccc5c4)c3)CC2)=C(c2ccc(Cl)cc2)C1 [Venetoclax] + Cn1cnc2c(F)c(Nc3ccc(Br)cc3Cl)c(C(=O)NOCCO)cc21 [Selumetinib] (first compound max 1 µM, 7x7, partner max 3 µM) | -0.0391 | -0.0484 |  | 
12 | CN(CCO)CC[C@H](CSc1ccccc1)Nc1ccc(S(=O)(=O)NC(=O)c2ccc(N3CCC([C@@H](O)c4ccccc4-c4ccc(Cl)cc4)CC3)cc2)cc1S(=O)(=O)C(F)(F)F [AZD4320] + CCN(CCO)CCCOc1ccc2c(Nc3cc(CC(=O)Nc4cccc(F)c4)[nH]n3)ncnc2c1 [AZD2811] (first compound max 1 µM, 7x7, partner max 1 µM) | -0.004 | -0.0127 |  | 
13 | CN(C)CCCOc1ccc(-c2ccc3ncc4c(c3c2)n(C2CCOCC2)c(=O)n4C)cn1 [AZD0156] + C[C@@H]1COCCN1C2=NC(=NC(=C2)C3(CC3)[S@](=N)(=O)C)C4=C5C=CNC5=NC=C4 [AZD6738] (first compound max 1 µM, 7x7, partner max 10 µM) | 0.0092 | -0.0168 |  | 
14 | CN(CCO)CC[C@H](CSc1ccccc1)Nc1ccc(S(=O)(=O)NC(=O)c2ccc(N3CCC([C@@H](O)c4ccccc4-c4ccc(Cl)cc4)CC3)cc2)cc1S(=O)(=O)C(F)(F)F [AZD4320] + Cc1cc2ncnn2cc1Nc1ncc2c(n1)n(C1CCOCC1)c(=O)n2C [AZD7648] (first compound max 1 µM, 7x7, partner max 10 µM) | -0.0258 | -0.0432 |  | 
15 | CC1(C)CCC(CN2CCN(c3ccc(C(=O)NS(=O)(=O)c4ccc(NCC5CCOCC5)c([N+](=O)[O-])c4)c(Oc4cnc5[nH]ccc5c4)c3)CC2)=C(c2ccc(Cl)cc2)C1 [Venetoclax] + C[C@@H]1COCCN1C2=NC(=NC(=C2)C3(CC3)[S@](=N)(=O)C)C4=C5C=CNC5=NC=C4 [AZD6738] (first compound max 1 µM, 7x7, partner max 10 µM) | -0.0258 | -0.035 |  | 
16 | Cc1c2c(nn1C)CSCc1cc(n(C)n1)CSc1cc(c3ccccc3c1)OCCCc1c(C(=O)O)n(C)c3c-2c(Cl)ccc13 [AZD5991] + Cc1cc2ncnn2cc1Nc1ncc2c(n1)n(C1CCOCC1)c(=O)n2C [AZD7648] (first compound max 1 µM, 7x7, partner max 10 µM) | -0.0726 | -0.135 |  | 
17 | CC1(C)CCC(CN2CCN(c3ccc(C(=O)NS(=O)(=O)c4ccc(NCC5CCOCC5)c([N+](=O)[O-])c4)c(Oc4cnc5[nH]ccc5c4)c3)CC2)=C(c2ccc(Cl)cc2)C1 [Venetoclax] + CCN(CCO)CCCOc1ccc2c(Nc3cc(CC(=O)Nc4cccc(F)c4)[nH]n3)ncnc2c1 [AZD2811] (first compound max 1 µM, 7x7, partner max 1 µM) | -0.0687 | -0.0668 |  | 
18 | CN(CCO)CC[C@H](CSc1ccccc1)Nc1ccc(S(=O)(=O)NC(=O)c2ccc(N3CCC([C@@H](O)c4ccccc4-c4ccc(Cl)cc4)CC3)cc2)cc1S(=O)(=O)C(F)(F)F [AZD4320] + C[C@@H](Nc1cc(F)cc(F)c1)c1cc(C(=O)N(C)C)cc2c(=O)cc(N3CCOCC3)oc12 [AZD8186] (first compound max 1 µM, 7x7, partner max 3 µM) | 0.0316 | 0.057 |  | 
19 | Cc1c2c(nn1C)CSCc1cc(n(C)n1)CSc1cc(c3ccccc3c1)OCCCc1c(C(=O)O)n(C)c3c-2c(Cl)ccc13 [AZD5991] + Cn1cnc2c(F)c(Nc3ccc(Br)cc3Cl)c(C(=O)NOCCO)cc21 [Selumetinib] (first compound max 1 µM, 7x7, partner max 3 µM) | -0.102 | -0.0029 |  | 
20 | Cc1cc2ncnn2cc1Nc1ncc2c(n1)n(C1CCOCC1)c(=O)n2C [AZD7648] + CN(C)CCCOc1ccc(-c2ccc3ncc4c(c3c2)n(C2CCOCC2)c(=O)n4C)cn1 [AZD0156] (first compound max 10 µM, 7x7, partner max 1 µM) | 0.0149 | 0.0109 |  | 
21 | C=CCn1c(=O)c2cnc(Nc3ccc(N4CCN(C)CC4)cc3)nc2n1-c1cccc(C(C)(C)O)n1 [AZD1775] + O=C(c1cc(Cc2n[nH]c(=O)c3ccccc23)ccc1F)N1CCN(C(=O)C2CC2)CC1 [Olaparib] (first compound max 1 µM, partner max 10 µM) | 0.0374 | -0.0663 |  | 
22 | CCN(CCO)CCCOc1ccc2c(Nc3cc(CC(=O)Nc4cccc(F)c4)[nH]n3)ncnc2c1 [AZD2811] + C=CCn1c(=O)c2cnc(Nc3ccc(N4CCN(C)CC4)cc3)nc2n1-c1cccc(C(C)(C)O)n1 [AZD1775] (first compound max 1 µM, partner max 1 µM) | -0.0176 | -0.0117 |  | 
23 | COc1cccc(OCCCN)c1-c1cc(Nc2cnc(C#N)cn2)n[nH]1 [Prexasertib] + C[C@@H]1COCCN1C2=NC(=NC(=C2)C3(CC3)[S@](=N)(=O)C)C4=C5C=CNC5=NC=C4 [AZD6738] (first compound max 1 µM, 7x7, partner max 10 µM) | -0.0325 | -0.0102 |  | 
24 | COc1cccc(OCCCN)c1-c1cc(Nc2cnc(C#N)cn2)n[nH]1 [Prexasertib] + CCc1c2c(nc3ccc(O)cc13)-c1cc3c(c(=O)n1C2)COC(=O)[C@]3(O)CC [SN-38] (first compound max 1 µM, 7x7, partner max 0.3 µM) | -0.0373 | -0.0185 |  | 
25 | C=CCn1c(=O)c2cnc(Nc3ccc(N4CCN(C)CC4)cc3)nc2n1-c1cccc(C(C)(C)O)n1 [AZD1775] + C[C@@H]1COCCN1C2=NC(=NC(=C2)C3(CC3)[S@](=N)(=O)C)C4=C5C=CNC5=NC=C4 [AZD6738] (first compound max 1 µM, partner max 10 µM) | -0.0206 | -0.0049 |  | 
26 | CN(CCO)CC[C@H](CSc1ccccc1)Nc1ccc(S(=O)(=O)NC(=O)c2ccc(N3CCC([C@@H](O)c4ccccc4-c4ccc(Cl)cc4)CC3)cc2)cc1S(=O)(=O)C(F)(F)F [AZD4320] + C1CN(CCC1(C(=O)N[C@@H](CCO)C2=CC=C(C=C2)Cl)N)C3=NC=NC4=C3C=CN4 [Capivasertib] (first compound max 1 µM, 7x7, partner max 3 µM) | -0.0113 | -0.053 |  | 
